# ChEMBL document CHEMBL3872249, “Computer design, synthesis, and bioactivity analyses of drugs like fingolimod used in the treatment of multiple sclerosis” (Bioorg Med Chem, 2017)
# Active and inactive are the calls of the source. The rule behind the calls is not given here.
# Experiments:
# SH-SY5Y [1] = assay: Effect on ADORA2A mRNA expression in human SH-SY5Y cells at EC10 by qPCR method relative to beta-actin; assay type: functional
# U-118-MG [2] = assay: Effect on ICAM1 mRNA expression in human U118MG cells at EC10 by qPCR method relative to beta-actin; assay type: functional
# U-118-MG [3] = assay: Effect on ADORA2A mRNA expression in human U118MG cells at EC10 by qPCR method relative to beta-actin; assay type: functional
# SH-SY5Y [4] = assay: Effect on S1PR1 mRNA expression in human SH-SY5Y cells at EC10 by qPCR method relative to beta-actin; assay type: functional
# SH-SY5Y [5] = assay: Effect on TNF mRNA expression in human SH-SY5Y cells at EC10 by qPCR method relative to beta-actin; assay type: functional
# [6] = Cytotoxicity against human SK-N-SH cells measured after 24 hrs by crystal-violet staining based assay; assay type: toxicity, cell-based
# U-118-MG [7] = assay: Effect on IL10 mRNA expression in human U118MG cells at EC10 by qPCR method relative to beta-actin; assay type: functional
# U-118-MG [8] = assay: Effect on MMP9 mRNA expression in human U118MG cells at EC10 by qPCR method relative to beta-actin; assay type: functional
# U-118-MG [9] = assay: Effect on GNAS mRNA expression in human U118MG cells at EC10 by qPCR method relative to beta-actin; assay type: functional
# SH-SY5Y [10] = assay: Effect on PMP22 mRNA expression in human SH-SY5Y cells at EC10 by qPCR method relative to beta-actin; assay type: functional
# [11] = target: Sphingosine 1-phosphate receptor 1 (Homo sapiens) (UniProt P21453); assay: Agonist activity at sphingosine-1-phosphate receptor in human SH-SY5Y cells assessed as increase in cAMP level at EC10 by direct immunoassay; assay type: functional, cell-based
# [12] = Cytotoxicity against human U118MG cells measured after 24 hrs by crystal-violet staining based assay; assay type: toxicity, cell-based; details: u-118-mg
# [13] = target: Sphingosine 1-phosphate receptor 1 (Homo sapiens) (UniProt P21453); assay: Agonist activity at sphingosine-1-phosphate receptor (unknown origin) expressed in HEK293 cells assessed as increase in cAMP level at EC10 after 18 hrs by CRE-responsive renilla luciferase reporter gene assay; assay type: functional, cell-based
# U-118-MG [14] = assay: Effect on TNF mRNA expression in human U118MG cells at EC10 by qPCR method relative to beta-actin; assay type: functional
# [15] = Cytotoxicity against human SH-SY5Y cells measured after 24 hrs by crystal-violet staining based assay; assay type: toxicity, cell-based
# U-118-MG [16] = assay: Effect on PMP22 mRNA expression in human U118MG cells at EC10 by qPCR method relative to beta-actin; assay type: functional
# SH-SY5Y [17] = assay: Effect on ADCY5 mRNA expression in human SH-SY5Y cells at EC10 by qPCR method relative to beta-actin; assay type: functional
# SK-N-SH [18] = assay: Effect on PMP22 mRNA expression in human SK-N-SH cells at EC10 by qPCR method relative to beta-actin; assay type: functional
# SK-N-SH [19] = assay: Effect on CCL2 mRNA expression in human SK-N-SH cells at EC10 by qPCR method relative to beta-actin; assay type: functional
# SH-SY5Y [20] = assay: Effect on NFKB1 mRNA expression in human SH-SY5Y cells at EC10 by qPCR method relative to beta-actin; assay type: functional
# U-118-MG [21] = assay: Effect on VCAM1 mRNA expression in human U118MG cells at EC10 by qPCR method relative to beta-actin; assay type: functional
# SK-N-SH [22] = assay: Effect on IL10 mRNA expression in human SK-N-SH cells at EC10 by qPCR method relative to beta-actin; assay type: functional
# U-118-MG [23] = assay: Effect on IL6 mRNA expression in human U118MG cells at EC10 by qPCR method relative to beta-actin; assay type: functional
# SK-N-SH [24] = assay: Effect on CXCL10 mRNA expression in human SK-N-SH cells at EC10 by qPCR method relative to beta-actin; assay type: functional
# SH-SY5Y [25] = assay: Effect on IL6 mRNA expression in human SH-SY5Y cells at EC10 by qPCR method relative to beta-actin; assay type: functional
# SH-SY5Y [26] = assay: Effect on TNFRSF1A mRNA expression in human SH-SY5Y cells at EC10 by qPCR method relative to beta-actin; assay type: functional
# SH-SY5Y [27] = assay: Effect on GNAS mRNA expression in human SH-SY5Y cells at EC10 by qPCR method relative to beta-actin; assay type: functional
# SK-N-SH [28] = assay: Effect on EPHA1 mRNA expression in human SK-N-SH cells at EC10 by qPCR method relative to beta-actin; assay type: functional
# SK-N-SH [29] = assay: Effect on TNFRSF1A mRNA expression in human SK-N-SH cells at EC10 by qPCR method relative to beta-actin; assay type: functional
# U-118-MG [30] = assay: Effect on NFKB1 mRNA expression in human U118MG cells at EC10 by qPCR method relative to beta-actin; assay type: functional
# [31] = target: Sphingosine 1-phosphate receptor 1 (Homo sapiens) (UniProt P21453); assay: Agonist activity at sphingosine-1-phosphate receptor human SK-N-SH cells assessed as increase in cAMP level at EC10 by direct immunoassay; assay type: functional, cell-based
# SK-N-SH [32] = assay: Effect on ADCY5 mRNA expression in human SK-N-SH cells at EC10 by qPCR method relative to beta-actin; assay type: functional
# SK-N-SH [33] = assay: Effect on NFKB1 mRNA expression in human SK-N-SH cells at EC10 by qPCR method relative to beta-actin; assay type: functional
# SK-N-SH [34] = assay: Effect on S1PR1 mRNA expression in human SK-N-SH cells at EC10 by qPCR method relative to beta-actin; assay type: functional
# SH-SY5Y [35] = assay: Effect on MMP9 mRNA expression in human SH-SY5Y cells at EC10 by qPCR method relative to beta-actin; assay type: functional
# SK-N-SH [36] = assay: Effect on DRD2 mRNA expression in human SK-N-SH cells at EC10 by qPCR method relative to beta-actin; assay type: functional
# SH-SY5Y [37] = assay: Effect on ICAM1 mRNA expression in human SH-SY5Y cells at EC10 by qPCR method relative to beta-actin; assay type: functional
# SH-SY5Y [38] = assay: Effect on VCAM1 mRNA expression in human SH-SY5Y cells at EC10 by qPCR method relative to beta-actin; assay type: functional
# SK-N-SH [39] = assay: Effect on GNAS mRNA expression in human SK-N-SH cells at EC10 by qPCR method relative to beta-actin; assay type: functional
# SK-N-SH [40] = assay: Effect on TNF mRNA expression in human SK-N-SH cells at EC10 by qPCR method relative to beta-actin; assay type: functional
# U-118-MG [41] = assay: Effect on ADCY5 mRNA expression in human U118MG cells at EC10 by qPCR method relative to beta-actin; assay type: functional
# SH-SY5Y [42] = assay: Effect on CCL2 mRNA expression in human SH-SY5Y cells at EC10 by qPCR method relative to beta-actin; assay type: functional
# SH-SY5Y [43] = assay: Effect on CXCL10 mRNA expression in human SH-SY5Y cells at EC10 by qPCR method relative to beta-actin; assay type: functional
# U-118-MG [44] = assay: Effect on S1PR1 mRNA expression in human U118MG cells at EC10 by qPCR method relative to beta-actin; assay type: functional
# Chain of Sphingosine 1-phosphate receptor 1 (Homo sapiens) (P21453 whole entry): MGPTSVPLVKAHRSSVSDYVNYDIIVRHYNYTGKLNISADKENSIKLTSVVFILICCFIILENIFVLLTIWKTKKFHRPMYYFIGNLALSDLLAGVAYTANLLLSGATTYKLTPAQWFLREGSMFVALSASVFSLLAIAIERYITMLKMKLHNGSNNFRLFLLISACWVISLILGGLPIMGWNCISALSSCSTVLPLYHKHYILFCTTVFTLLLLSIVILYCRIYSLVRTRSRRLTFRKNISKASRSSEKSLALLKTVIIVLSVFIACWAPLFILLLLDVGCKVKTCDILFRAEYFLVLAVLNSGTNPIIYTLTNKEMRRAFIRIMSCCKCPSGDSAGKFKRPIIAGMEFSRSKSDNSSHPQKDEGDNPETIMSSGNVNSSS
structure (smiles),measurement,setting,value
CCCCCCCCc1ccc(CCC(N)(CO)CO)cc1 [FINGOLIMOD],fold change (FC),SH-SY5Y [1],-4.4924
same,fold change (FC),U-118-MG [2],-6.8152
same,fold change (FC),U-118-MG [3],-4.9966
same,fold change (FC),SH-SY5Y [4],-8.6788
same,fold change (FC),SH-SY5Y [5],-15.9446
same,EC10,[6],550 nM
same,fold change (FC),U-118-MG [7],-2.5151
same,fold change (FC),U-118-MG [8],-6.3039
same,fold change (FC),U-118-MG [9],-2.939
same,fold change (FC),SH-SY5Y [10],-5.1694
same,Activity,[11],Active
same,EC10,[12],610 nM
same,Activity,[13],Active
same,fold change (FC),U-118-MG [14],-5.8716
same,EC10,[15],540 nM
same,fold change (FC),U-118-MG [16],-5.8716
same,fold change (FC),SH-SY5Y [17],-5.5117
same,fold change (FC),SK-N-SH [18],-3.3914
same,fold change (FC),SK-N-SH [19],-11.3481
same,fold change (FC),SH-SY5Y [20],-3.9931
same,fold change (FC),U-118-MG [21],-4.7445
same,fold change (FC),SK-N-SH [22],-4.2704
same,fold change (FC),U-118-MG [23],-4.4847
same,fold change (FC),SK-N-SH [24],-5.2302
same,fold change (FC),SH-SY5Y [25],-6.498
same,fold change (FC),SH-SY5Y [26],-10.091
same,fold change (FC),SH-SY5Y [27],-3.605
same,fold change (FC),SK-N-SH [28],-3.6983
same,fold change (FC),SK-N-SH [29],-3.8155
same,fold change (FC),U-118-MG [30],-3.1465
same,Activity,[31],Active
same,fold change (FC),SK-N-SH [32],-5.1851
same,fold change (FC),SK-N-SH [33],-3.6601
same,fold change (FC),SK-N-SH [34],-5.8741
same,fold change (FC),SH-SY5Y [35],-6.6923
same,fold change (FC),SK-N-SH [36],-4.5217
same,fold change (FC),SH-SY5Y [37],-6.0839
same,fold change (FC),SH-SY5Y [38],-4.9933
same,fold change (FC),SK-N-SH [39],-6.1024
same,fold change (FC),SK-N-SH [40],-15.2356
same,fold change (FC),U-118-MG [41],-5.5057
same,fold change (FC),SH-SY5Y [42],-7.8218
same,fold change (FC),SH-SY5Y [43],-3.1821
same,fold change (FC),U-118-MG [44],-4.1044
CCCCCCCCn1nnnc1CCC(N)(CO)CO.Cl,fold change (FC),SH-SY5Y [1],-6.5966
same,fold change (FC),U-118-MG [2],-5.127
same,fold change (FC),U-118-MG [3],-5.0641
same,fold change (FC),SH-SY5Y [4],-4.2848
same,fold change (FC),SH-SY5Y [5],-3.2642
same,EC10,[6],370 nM
same,fold change (FC),U-118-MG [7],-2.5669
same,fold change (FC),U-118-MG [8],-4.4691
same,fold change (FC),U-118-MG [9],-2.9212
same,fold change (FC),SH-SY5Y [10],-3.5921
same,Activity,[11],Active
same,EC10,[12],540 nM
same,Activity,[13],Active
same,fold change (FC),U-118-MG [14],-5.8487
same,EC10,[15],450 nM
same,fold change (FC),U-118-MG [16],-5.1248
same,fold change (FC),SH-SY5Y [17],-5.9067
same,fold change (FC),SK-N-SH [18],-4.1464
same,fold change (FC),SK-N-SH [19],-8.981
same,fold change (FC),SH-SY5Y [20],-3.8433
same,fold change (FC),U-118-MG [21],-3.8654
same,fold change (FC),SK-N-SH [22],-7.7375
same,fold change (FC),U-118-MG [23],-4.7651
same,fold change (FC),SK-N-SH [24],-4.7219
same,fold change (FC),SH-SY5Y [25],-4.4551
same,fold change (FC),SH-SY5Y [26],-6.2787
same,fold change (FC),SH-SY5Y [27],-8.1531
same,fold change (FC),SK-N-SH [28],-7.9001
same,fold change (FC),SK-N-SH [29],-3.6537
same,fold change (FC),U-118-MG [30],-2.6004
same,Activity,[31],Active
same,fold change (FC),SK-N-SH [32],-4.4983
same,fold change (FC),SK-N-SH [33],-6.9253
same,fold change (FC),SK-N-SH [34],-4.3001
same,fold change (FC),SH-SY5Y [35],-5.7901
same,fold change (FC),SK-N-SH [36],-3.8822
same,fold change (FC),SH-SY5Y [37],-7.3035
same,fold change (FC),SH-SY5Y [38],-5.2706
same,fold change (FC),SK-N-SH [39],-7.631
same,fold change (FC),SK-N-SH [40],-7.8456
same,fold change (FC),U-118-MG [41],-5.787
same,fold change (FC),SH-SY5Y [42],-3.0787
same,fold change (FC),SH-SY5Y [43],-3.4279
same,fold change (FC),U-118-MG [44],-4.1312
